In patent publication US20110028518A1, “DEXLANSOPRAZOLE PROCESS AND POLYMORPHS” (DR. REDDY'S LABORATORIES LTD., priority 2008, published 2011):
Blank lines part the entries; values can stand above or below the compound they belong to.

Assay: Storage stability studies (Example 27): appearance, PXRD, HPLC purity, impurities and chiral purity
Type: physicochemical
Conditions: for Chiral Purity / Highest Impurity / Purity / Sulfide / Sulfone: HPLC
Excerpt: A high performance liquid chromatography (HPLC) method for measuring the chemical purity of dexlansoprazole or a compound of formula (VII) of the present application, and for determination of their corresponding impurities, involves the use of a YMC-PAK ODS-A 100×4.6, 3 μm or equivalent column.
A high performance liquid chromatography method useful for measuring the enantiomeric purity of dexlansoprazole or a compound of formula (VII) of the present application involves the use of a Chiralpak-IC, 250×4.6 mm or equivalent column.
Products from certain of the above examples and a crystalline dexlansoprazole, prepared according to Example 2 of U.S. Pat. No. 6,462,058, were tested for their storage stabilities. The samples were stored in tied clear polyethylene bags that were placed in sealed black polyethylene bags along with a silica gel desiccant pouch filled with nitrogen, and finally the black bags were placed into triple laminated foil bags along with a silica gel pouch and then sealed and stored in HDPE drum packages under the conditions noted in the following results tables. Samples were analyzed before storage, at intervals during storage, and after storage.
Samples were analyzed by HPLC for chemical purity, for:
a “sulfide” impurity, having a chemical name 2-[[{4-(2,2,2-trifluoroethoxy)-3-methylpyridine-2-yl}methyl]thio]-1H-benzimidazole and the following structure;
a “sulfone” impurity, having a chemical name 2-[[{4-(2,2,2-trifluoroethoxy)-3-methylpyridine-2-yl}methyl]sulfonyl]-1H-benzimidazole and the following structure;
and for chiral purity. Also given in the tables is the concentration of the highest unidentified impurity, as determined by HPLC, and the PXRD analysis result. All percentages given below are expressed on a weight basis.

[1] = Initial Analysis, before storage

Appearance (After 1 Week at 2-8° C.): Cream color
PXRD (After 1 Week at 2-8° C.): Crystalline
Chiral Purity (After 1 Week at 2-8° C.): 88.02%
Highest Impurity (After 1 Week at 2-8° C.): 0.14%
Purity (After 1 Week at 2-8° C.): 95.39%
Sulfide (After 1 Week at 2-8° C.): 2.48%
Sulfone (After 1 Week at 2-8° C.): 1.68%
Appearance (After 1 Week at 25-35° C.): Cream color
PXRD (After 1 Week at 25-35° C.): Crystalline
Chiral Purity (After 1 Week at 25-35° C.): 87.8%
Highest Impurity (After 1 Week at 25-35° C.): 0.14%
Purity (After 1 Week at 25-35° C.): 95.28%
Sulfide (After 1 Week at 25-35° C.): 2.48%
Sulfone (After 1 Week at 25-35° C.): 1.77%
Appearance (After 2 Weeks at 2-8° C.): Cream color
PXRD (After 2 Weeks at 2-8° C.): Crystalline
Chiral Purity (After 2 Weeks at 2-8° C.): 88.49%
Highest Impurity (After 2 Weeks at 2-8° C.): 0.13%
Purity (After 2 Weeks at 2-8° C.): 95.19%
Sulfide (After 2 Weeks at 2-8° C.): 2.36%
Sulfone (After 2 Weeks at 2-8° C.): 1.62%
Appearance (After 2 Weeks at 25-35° C.): Cream color
PXRD (After 2 Weeks at 25-35° C.): Crystalline
Chiral Purity (After 2 Weeks at 25-35° C.): 88.34%
Highest Impurity (After 2 Weeks at 25-35° C.): 0.13%
Purity (After 2 Weeks at 25-35° C.): 95.19%
Sulfide (After 2 Weeks at 25-35° C.): 2.36%
Sulfone (After 2 Weeks at 25-35° C.): 1.62%
Appearance (After 3 Weeks at 2-8° C.): Cream color
PXRD (After 3 Weeks at 2-8° C.): Crystalline
Chiral Purity (After 3 Weeks at 2-8° C.): 88.34%
Highest Impurity (After 3 Weeks at 2-8° C.): 0.14%
Purity (After 3 Weeks at 2-8° C.): 95.65%
Sulfide (After 3 Weeks at 2-8° C.): 2.31%
Sulfone (After 3 Weeks at 2-8° C.): 1.61%
Appearance (After 3 Weeks at 25-35° C.): Cream color
PXRD (After 3 Weeks at 25-35° C.): Crystalline
Chiral Purity (After 3 Weeks at 25-35° C.): 88.27%
Highest Impurity (After 3 Weeks at 25-35° C.): 0.13%
Purity (After 3 Weeks at 25-35° C.): 95.4%
Sulfide (After 3 Weeks at 25-35° C.): 2.39%
Sulfone (After 3 Weeks at 25-35° C.): 1.65%
Appearance [1]: Cream color
PXRD [1]: Crystalline
Chiral Purity [1]: 88.13%
Highest Impurity [1]: 0.15%
Purity [1]: 95.4%
Sulfide [1]: 2.41%
Sulfone [1]: 1.66%
Structure (SMILES): Cc1c(OCC(F)(F)F)ccnc1C[S@@+]([O-])c1nc2ccccc2[nH]1 [Crystalline Drug, dexlansoprazole]

Appearance (After 1 Week at 2-8° C.): Light yellow
PXRD (After 1 Week at 2-8° C.): Amorphous
Chiral Purity (After 1 Week at 2-8° C.): 99.89%
Highest Impurity (After 1 Week at 2-8° C.): 0.13%
Purity (After 1 Week at 2-8° C.): 97.21%
Sulfide (After 1 Week at 2-8° C.): 1.83%
Sulfone (After 1 Week at 2-8° C.): 0.63%
Appearance (After 1 Week at 25-35° C.): Light yellow
PXRD (After 1 Week at 25-35° C.): Amorphous
Chiral Purity (After 1 Week at 25-35° C.): 99.86%
Highest Impurity (After 1 Week at 25-35° C.): 0.14%
Purity (After 1 Week at 25-35° C.): 97.12%
Sulfide (After 1 Week at 25-35° C.): 1.84%
Sulfone (After 1 Week at 25-35° C.): 0.68%
Appearance (After 2 Weeks at 2-8° C.): Light yellow
PXRD (After 2 Weeks at 2-8° C.): Amorphous
Chiral Purity (After 2 Weeks at 2-8° C.): 99.87%
Highest Impurity (After 2 Weeks at 2-8° C.): 0.11%
Purity (After 2 Weeks at 2-8° C.): 97.21%
Sulfide (After 2 Weeks at 2-8° C.): 1.79%
Sulfone (After 2 Weeks at 2-8° C.): 0.63%
Appearance (After 2 Weeks at 25-35° C.): Light yellow
PXRD (After 2 Weeks at 25-35° C.): Amorphous
Chiral Purity (After 2 Weeks at 25-35° C.): 99.86%
Highest Impurity (After 2 Weeks at 25-35° C.): 0.11%
Purity (After 2 Weeks at 25-35° C.): 97.23%
Sulfide (After 2 Weeks at 25-35° C.): 0.63%
Sulfone (After 2 Weeks at 25-35° C.): 1.78%
Appearance (After 3 Weeks at 2-8° C.): Light yellow
PXRD (After 3 Weeks at 2-8° C.): Amorphous
Chiral Purity (After 3 Weeks at 2-8° C.): 99.85%
Highest Impurity (After 3 Weeks at 2-8° C.): 0.12%
Purity (After 3 Weeks at 2-8° C.): 97.27%
Sulfide (After 3 Weeks at 2-8° C.): 1.77%
Sulfone (After 3 Weeks at 2-8° C.): 0.62%
Appearance (After 3 Weeks at 25-35° C.): Light yellow
PXRD (After 3 Weeks at 25-35° C.): Amorphous
Chiral Purity (After 3 Weeks at 25-35° C.): 99.84%
Highest Impurity (After 3 Weeks at 25-35° C.): 0.15%
Purity (After 3 Weeks at 25-35° C.): 97%
Sulfide (After 3 Weeks at 25-35° C.): 1.79%
Sulfone (After 3 Weeks at 25-35° C.): 0.63%
Appearance [1]: Light yellow
PXRD [1]: Amorphous
Chiral Purity [1]: 99.86%
Highest Impurity [1]: 0.24%
Purity [1]: 97.14%
Sulfide [1]: 1.77%
Sulfone [1]: 0.61%
Structure (SMILES): Cc1c(OCC(F)(F)F)ccnc1C[S@@+]([O-])c1nc2ccccc2[nH]1 [Example 8, dexlansoprazole]

Appearance (After 1 Week at 2-8° C.): Light brown
PXRD (After 1 Week at 2-8° C.): Amorphous
Chiral Purity (After 1 Week at 2-8° C.): 96.57%
Highest Impurity (After 1 Week at 2-8° C.): 0.09%
Purity (After 1 Week at 2-8° C.): 83.76%
Sulfide (After 1 Week at 2-8° C.): 13.78%
Sulfone (After 1 Week at 2-8° C.): 1.48%
Appearance (After 1 Week at 25-35° C.): Light brown
PXRD (After 1 Week at 25-35° C.): Amorphous
Chiral Purity (After 1 Week at 25-35° C.): 96.56%
Highest Impurity (After 1 Week at 25-35° C.): 0.14%
Purity (After 1 Week at 25-35° C.): 83.03%
Sulfide (After 1 Week at 25-35° C.): 13.83%
Sulfone (After 1 Week at 25-35° C.): 1.55%
Appearance (After 2 Weeks at 2-8° C.): Light brown
PXRD (After 2 Weeks at 2-8° C.): Amorphous
Chiral Purity (After 2 Weeks at 2-8° C.): 96.86%
Highest Impurity (After 2 Weeks at 2-8° C.): 0.17%
Purity (After 2 Weeks at 2-8° C.): 83.6%
Sulfide (After 2 Weeks at 2-8° C.): 13.63%
Sulfone (After 2 Weeks at 2-8° C.): 1.45%
Appearance (After 2 Weeks at 25-35° C.): Light brown
PXRD (After 2 Weeks at 25-35° C.): Amorphous
Chiral Purity (After 2 Weeks at 25-35° C.): 96.49%
Highest Impurity (After 2 Weeks at 25-35° C.): 1.16%
Purity (After 2 Weeks at 25-35° C.): 80.85%
Sulfide (After 2 Weeks at 25-35° C.): 13.8%
Sulfone (After 2 Weeks at 25-35° C.): 1.49%
Appearance (After 3 Weeks at 2-8° C.): Light brown
PXRD (After 3 Weeks at 2-8° C.): Amorphous
Chiral Purity (After 3 Weeks at 2-8° C.): 96.73%
Highest Impurity (After 3 Weeks at 2-8° C.): 0.07%
Purity (After 3 Weeks at 2-8° C.): 83.9%
Sulfide (After 3 Weeks at 2-8° C.): 13.69%
Sulfone (After 3 Weeks at 2-8° C.): 1.5%
Appearance (After 3 Weeks at 25-35° C.): Light brown
PXRD (After 3 Weeks at 25-35° C.): Amorphous
Chiral Purity (After 3 Weeks at 25-35° C.): 96.67%
Highest Impurity (After 3 Weeks at 25-35° C.): 0.8%
Purity (After 3 Weeks at 25-35° C.): 82.07%
Sulfide (After 3 Weeks at 25-35° C.): 13.69%
Sulfone (After 3 Weeks at 25-35° C.): 1.51%
Appearance [1]: Light brown
PXRD [1]: Amorphous
Chiral Purity [1]: 96.59%
Highest Impurity [1]: 0.08%
Purity [1]: 84.42%
Sulfide [1]: 13.43%
Sulfone [1]: 1.45%
Structure (SMILES): Cc1c(OCC(F)(F)F)ccnc1C[S@@+]([O-])c1nc2ccccc2[nH]1 [Example 16 (A), dexlansoprazole]
